Experimental data: ChEMBL document CHEMBL5370594, “Novel Compounds for Preventing SARS-CoV-2 Viral Replication and Treating COVID-19” (ACS Med Chem Lett, 2023)

Target: Replicase polyprotein 1ab (Severe acute respiratory syndrome coronavirus 2, UniProt P0DTD1)
Test: Inhibition of full-length recombinant SARS-CoV-2 3CL protease expressed in Escherichia coli BL21 (DE3) using FAM- KTSAVLQSGFRKMEK-TAMRA as substrate pre-incubated for 1 hr with compound followed by substrate addition measured after 30 mins by FRET analysis

SMILES | IC50
CC(C)(C)[C@H](NC(=O)C(F)(F)F)C(=O)N1C[C@H]2[C@@H]([C@H]1C(=O)NN(C[C@@H]1CCNC1=O)C(=O)CCl)C2(C)C | 6 nM
CC[C@H](C)[C@H](NC(=O)C(F)(F)C(F)(F)F)C(=O)N1C[C@@H]2CCC[C@@H]2[C@H]1C(=O)NN(C[C@@H]1CCNC1=O)C(=O)[C@H](F)Cl | 6 nM
CCC(CC)[C@H](NC(=O)C(F)(F)F)C(=O)N1C[C@H]2[C@@H]([C@H]1C(=O)NN(C[C@@H]1CCNC1=O)C(=O)[C@H](F)Cl)C2(C)C | 7 nM
